Test results: patent publication US20100227859A1, “TRICYCLIC COMPOUNDS AS MATRIX METALLOPROTEINASE INHIBITORS” (priority 2007, published 2010)

Each molecule was assayed against purified human MMP-12 enzyme (Homo sapiens, UniProt P39900) (assay: MMP-12 FRET assay). Conditions: substrate 20 μM, room temperature.
Assay type: biochemical
Outline: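 Enzyme pre-incubated 30 min at room temperature with compound in 50 mM HEPES pH 7.4, 100 mM NaCl, 5 mM CaCl2, 0.005% Brij-35, 10% DMSO final. Reaction started with 20 μM MCA-Pro-Leu-Gly-Leu-Dpa(DNP)-Ala-Arg, and initial cleavage rate read over 30 min (λex 325, λem 395 nm). IC50 from slope-factor inhibition fit.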

purified human MMP-12 enzyme, sequence (P39900 106-470): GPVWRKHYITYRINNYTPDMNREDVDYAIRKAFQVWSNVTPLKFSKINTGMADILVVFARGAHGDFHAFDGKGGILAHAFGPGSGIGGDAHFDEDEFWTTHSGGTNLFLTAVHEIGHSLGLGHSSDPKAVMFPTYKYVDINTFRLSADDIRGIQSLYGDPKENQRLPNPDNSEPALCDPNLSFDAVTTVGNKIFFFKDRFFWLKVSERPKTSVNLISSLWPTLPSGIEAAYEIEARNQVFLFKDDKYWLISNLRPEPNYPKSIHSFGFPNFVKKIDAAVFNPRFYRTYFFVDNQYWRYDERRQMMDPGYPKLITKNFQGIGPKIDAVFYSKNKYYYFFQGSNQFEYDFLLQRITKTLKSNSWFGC

Compound | IC50
CC(C)[C@H](NS(=O)(=O)c1ccc2c(c1)oc1ccc(C(=N)Nc3ccccc3)cc12)C(=O)O [Compound 87, (S)-3-methyl-2-(8-(N-phenylcarbamimidoyl)dibenzo[b,d]furan-3-sulfonamido)butanoic acid] | 19 nM
CC(C)[C@H](NS(=O)(=O)c1ccc2c(c1)oc1ccc(C(=N)NCc3ccccc3)cc12)C(=O)O [Compound 88, (S)-2-(8-(N-benzylcarbamimidoyl)dibenzo[b,d]furan-3-sulfonamido)-3-methylbutanoic acid] | 47 nM
Cc1cc(-c2ccc3oc4cc(S(=O)(=O)N[C@H](C(=O)O)C(C)C)ccc4c3c2)c(C)s1 [Compound 89, (S)-2-(8-(2,5-dimethylthiophen-3-yl)dibenzo[b,d]furan-3-sulfonamido)-3-methylbutanoic acid] | 2.5 nM
COCC#Cc1ccc2c(c1)sc1cc(S(=O)(=O)N[C@@H](C(=O)O)C(C)C)ccc12 [Compound 90, (R)-2-(7-(3-methoxyprop-1-ynyl)dibenzo[b,d]thiophene-3-sulfonamido)-3-methylbutanoic acid] | 15 nM
CC(C)[C@H](NS(=O)(=O)c1ccc2c(c1)oc1ccc(-c3ncon3)cc12)C(=O)O [Compound 93, (S)-2-(8-(1,2,4-oxadiazol-3-yl)dibenzo[b,d]furan-3-sulfonamido)-3-methylbutanoic acid] | 68 nM
CC(C)[C@H](NS(=O)(=O)c1ccc2c(c1)oc1ccc(-c3ccoc3Cl)cc12)C(=O)O [Compound 94, (S)-2-(8-(2-chlorofuran-3-yl)dibenzo[b,d]furan-3-sulfonamido)-3-methylbutanoic acid] | < 1.5 nM
CC(C)[C@H](NS(=O)(=O)c1ccc2c(c1)oc1ccc(-c3cc(Cl)oc3Cl)cc12)C(=O)O [Compound 95, (S)-2-(8-(2,5-dichlorofuran-3-yl)dibenzo[b,d]furan-3-sulfonamido)-3-methylbutanoic acid] | < 1.5 nM
CC(C)[C@@H](NS(=O)(=O)c1ccc2oc3cc(-c4ccoc4)ccc3c2c1)C(=O)O [Compound 96, (R)-2-(7-(furan-3-yl)dibenzo[b,d]furan-2-sulfonamido)-3-methylbutanoic acid] | 13 nM
CC(C)[C@@H](NS(=O)(=O)c1ccc2oc3cc(-c4ccsc4)ccc3c2c1)C(=O)O [Compound 97, (R)-3-methyl-2-(7-(thiophen-3-yl)dibenzo[b,d]furan-2-sulfonamido)butanoic acid] | < 1.5 nM
CC(C)[C@@H](NS(=O)(=O)c1ccc2oc3cc(-c4ccco4)ccc3c2c1)C(=O)O [Compound 98, (R)-2-(7-(furan-2-yl)dibenzo[b,d]furan-2-sulfonamido)-3-methylbutanoic acid] | < 1.5 nM
Cc1cscc1-c1ccc2c(c1)oc1ccc(S(=O)(=O)N[C@@H](C(=O)O)C(C)C)cc12 [Compound 99, (R)-3-methyl-2-(7-(4-methylthiophen-3-yl)dibenzo[b,d]furan-2-sulfonamido)butanoic acid] | 12 nM
CC(C)[C@@H](NS(=O)(=O)c1ccc2oc3cc(-c4cc5ccccc5s4)ccc3c2c1)C(=O)O [Compound 100, (R)-2-(7-(benzo[b]thiophen-2-yl)dibenzo[b,d]furan-2-sulfonamido)-3-methylbutanoic acid] | 4.9 nM
CC(C)[C@@H](NS(=O)(=O)c1ccc2oc3cc(-c4ccc(Cl)nc4)ccc3c2c1)C(=O)O [Compound 101, (R)-2-(7-(6-chloropyridin-3-yl)dibenzo[b,d]furan-2-sulfonamido)-3-methylbutanoic acid] | 5.1 nM
COc1ccc(-c2ccc3c(c2)oc2ccc(S(=O)(=O)N[C@@H](C(=O)O)C(C)C)cc23)cn1 [Compound 102, (R)-2-(7-(6-methoxypyridin-3-yl)dibenzo[b,d]furan-2-sulfonamido)-3-methylbutanoic acid] | < 1.5 nM
CC(C)[C@@H](NS(=O)(=O)c1ccc2oc3cc(-c4cn[nH]c4)ccc3c2c1)C(=O)O [Compound 103, (R)-2-(7-(1H-pyrazol-4-yl)dibenzo[b,d]furan-2-sulfonamido)-3-methylbutanoic acid] | 16 nM
CC(C)[C@@H](NS(=O)(=O)c1ccc2oc3cc(/C=C/C4CCCCC4)ccc3c2c1)C(=O)O [Compound 104, (R,E)-2-(7-(2-cyclohexylvinyl)dibenzo[b,d]furan-2-sulfonamido)-3-methylbutanoic acid] | 59 nM
CC(=O)c1ccc(-c2ccc3c(c2)oc2ccc(S(=O)(=O)N[C@@H](C(=O)O)C(C)C)cc23)s1 [Compound 105, (R)-2-(7-(5-acetylthiophen-2-yl)dibenzo[b,d]furan-2-sulfonamido)-3-methylbutanoic acid] | 21.8 nM
CCN(CC)C(=N)c1ccc2oc3cc(S(=O)(=O)N[C@H](C(=O)O)C(C)C)ccc3c2c1 [Compound 106, (S)-2-(8-(N,N-diethylcarbamimidoyl)dibenzo[b,d]furan-3-sulfonamido)-3-methylbutanoic acid] | 400 nM

Compound | IC50
CC(C)[C@H](NS(=O)(=O)c1ccc2c(c1)oc1ccc(C3=NCCS3)cc12)C(=O)O [Compound 107, (S)-2-(8-(4,5-dihydrothiazol-2-yl)dibenzo[b,d]furan-3-sulfonamido)-3-methylbutanoic acid] | 21 nM
CONC(=N)c1ccc2oc3cc(S(=O)(=O)N[C@H](C(=O)O)C(C)C)ccc3c2c1 [Compound 108, (S)-2-(8-(N-methoxycarbamimidoyl)dibenzo[b,d]furan-3-sulfonamido)-3-methylbutanoic acid] | 2 nM
CCN=C(NCC)c1ccc2oc3cc(S(=O)(=O)N[C@H](C(=O)O)C(C)C)ccc3c2c1 [Compound 109, (S)-2-(8-(N,N′-diethylcarbamimidoyl)dibenzo[b,d]furan-3-sulfonamido)-3-methylbutanoic acid] | 640 nM
CC(C)[C@H](NS(=O)(=O)c1ccc2c(c1)oc1ccc(C(=N)N(C)C(C)C)cc12)C(=O)O [Compound 110, (S)-2-(8-(N-isopropyl-N-methylcarbamimidoyl)dibenzo[b,d]furan-3-sulfonamido)-3-methylbutanoic acid] | 425 nM
CC(C)[C@H](NS(=O)(=O)c1ccc2c(c1)oc1ccc(-c3ccc(C(N)=O)s3)cc12)C(=O)O [Compound 111, (S)-2-(8-(5-carbamoylthiophen-2-yl)dibenzo[b,d]furan-3-sulfonamido)-3-methylbutanoic acid] | < 1.5 nM
CC(C)[C@H](NS(=O)(=O)c1ccc2c(c1)oc1ccc(-c3ccc(C(=O)O)s3)cc12)C(=O)O [Compound 112, (S)-5-(7-(N-(1-carboxy-2-methylpropyl)sulfamoyl)dibenzo[b,d]furan-2-yl)thiophene-2-carboxylic acid] | 52 nM
COc1ncc(-c2ccc3c(c2)oc2ccc(S(=O)(=O)N[C@@H](C(=O)O)C(C)C)cc23)c(OC)n1 [Compound 115, (R)-2-(7-(2,4-dimethoxypyrimidin-5-yl)dibenzo[b,d]furan-2-sulfonamido)-3-methylbutanoic acid] | 290 nM
CC(C)[C@@H](NS(=O)(=O)c1ccc2oc3cc(-c4ccc[nH]4)ccc3c2c1)C(=O)O [Compound 116, (R)-2-(7-(1H-pyrrol-2-yl)dibenzo[b,d]furan-2-sulfonamido)-3-methylbutanoic acid] | 3.1 nM
CC(C)[C@@H](NS(=O)(=O)c1ccc2oc3cc(-c4cnn(C)c4)ccc3c2c1)C(=O)O [Compound 117, (R)-3-methyl-2-(7-(1-methyl-1H-pyrazol-4-yl)dibenzo[b,d]furan-2-sulfonamido)butanoic acid] | 2.8 nM
CC(C)[C@@H](NS(=O)(=O)c1ccc2oc3cc(-c4cccs4)ccc3c2c1)C(=O)O [Compound 118, (R)-3-methyl-2-(7-(thiophen-2-yl)dibenzo[b,d]furan-2-sulfonamido)butanoic acid] | 0.6 nM
CC(C)[C@@H](NS(=O)(=O)c1ccc2oc3cc(-c4cc5ccccc5o4)ccc3c2c1)C(=O)O [Compound 119, (R)-2-(7-(benzofuran-2-yl)dibenzo[b,d]furan-2-sulfonamido)-3-methylbutanoic acid] | 8.3 nM
CC(C)[C@@H](NS(=O)(=O)c1ccc2oc3cc(-c4ccc(C(F)(F)F)cc4)ccc3c2c1)C(=O)O [Compound 120, (R)-3-methyl-2-(7-(4-(trifluoromethyl)phenyl)dibenzo[b,d]furan-2-sulfonamido)butanoic acid] | 2.2 nM
CC(C)[C@@H](NS(=O)(=O)c1ccc2oc3cc(-c4cc5ccccc5n4C)ccc3c2c1)C(=O)O [Compound 121, (R)-3-methyl-2-(7-(1-methyl-1H-indol-2-yl)dibenzo[b,d]furan-2-sulfonamido)butanoic acid] | 140 nM
CC(C)[C@@H](NS(=O)(=O)c1ccc2oc3cc(-c4cc5cc(F)ccc5[nH]4)ccc3c2c1)C(=O)O [Compound 122, (R)-2-(7-(5-fluoro-1H-indol-2-yl)dibenzo[b,d]furan-2-sulfonamido)-3-methylbutanoic acid] | 6.9 nM
CC(C)[C@H](NS(=O)(=O)c1ccc2c(c1)oc1ccc(-c3ccc(F)s3)cc12)C(=O)O [Compound 124, (S)-2-(8-(5-fluorothiophen-2-yl)dibenzo[b,d]furan-3-sulfonamido)-3-methylbutanoic acid] | < 1.5 nM
CC(C)[C@H](NS(=O)(=O)c1ccc2c(c1)oc1ccc(-c3ccc4oc5cc(S(=O)(=O)N[C@H](C(=O)O)C(C)C)ccc5c4c3)cc12)C(=O)O [Compound 125] | 17 nM
CC(C)[C@H](NS(=O)(=O)c1ccc2c(c1)oc1ccc(-c3nc(C(F)(F)F)cs3)cc12)C(=O)O [Compound 126, (S)-3-methyl-2-(8-(4-(trifluoromethyl)thiazol-2-yl)dibenzo[b,d]furan-3-sulfonamido)butanoic acid] | < 1.5 nM
CC(C)[C@H](NS(=O)(=O)c1ccc2c(c1)oc1ccc(C(=N)N3CCCC3)cc12)C(=O)O [Compound 127, (S)-2-(8-(imino(pyrrolidin-1-yl)methyl)dibenzo[b,d]furan-3-sulfonamido)-3-methylbutanoic acid] | 175 nM
